Assay [1] has as its target LSD1 (Homo sapiens (Human), UniProt O60341). In words: LSD1 histone demethylase inhibition, LSD1 fluorescence analysis kit (BPS Bioscience). Type of assay: biochemical. Conditions: H2O2/HRP/Amplex Red fluorescence readout. From the text: The results are expressed as an IC50 value. As for a control, GSK2879552 (available from GlaxoSmithKline USA) was used.
Assay [2] deals with NCI-H1417 cells. In words: Cell growth suppression test, CellTiter-Glo Luminescent Cell Viability Assay. Conditions: Homo sapiens, 240 h; NCI-H1417 cells treated for 10 days. The format is cell-based. The method, then:
Cell growth suppression effects of the synthesized compounds on NCI-H1417 cells were identified. The cells were treated with the synthesized compounds for 10 days. Then, in order to test the cell growth suppression, CellTiter-Glo Luminescent Cell Viability Assay (available from Promega, USA) was used. This test is to measure emission signals proportional to the number of ATPs based on a fixed amount of ATPs, which represents the presence of metabolically active cells, thereby determining the number of viable cells. The results are expressed as a GI50 value. As for a control, GSK2879552 (available from GlaxoSmithKline USA) was used.
(In general: Cellular ATP, detected with luciferase, serves as a proxy for viable cell number.)

Consider 21 compounds from patent US11254676B2, “Pyrazole derivative compound and use thereof” (HANMI PHARM. CO., LTD., priority 2017, dated 2022).

For orientation: IC50 means the midpoint of a concentration-inhibition curve. Lower therefore signals higher potency. The term GI50 denotes the concentration that inhibits growth by half. In the case of `O=C(O)c1ccc(CN2CCC(CN[C@@H]3C[C@H]3c3ccccc3)CC2)cc1` [Control, GSK2879552, reference compound], the IC50 in assay [1] is 311 nM. In assay [2], the GI50 was determined as 591 nM. As for `CN[C@@H]1CCCN(C(=O)c2cc(-c3ccc(C#N)c(F)c3)n(-c3ccc(C4CC4)cc3F)n2)C1` [Example 6, (R)-4-(1-(4-cyclopropyl-2-fluorophenyl)-3-(3-(methylamino)piperidine-1-carbonyl)-1H-pyrazole-5-yl)-2-fluorobenzonitrile], the concentration for half-maximal inhibition (IC50) in assay [1] was found to be 21 nM. In addition, halving of growth in assay [2] (GI50) required 48 nM. Consider `CN[C@@H]1CCCN(C(=O)c2cc(-c3ccc(C#N)c(F)c3)n(-c3ccc(N4CCC(OC)C4)cc3F)n2)C1` (stereo partly drawn) [Example 66, 2-fluoro-4-(1-(2-fluoro-4-(3-methoxypyrrolidine-1-yl)phenyl)-3-((R)-3-(methylamino)piperidine-1-carbonyl)-1H-pyrazole-5-yl)benzonitrile], for which, in assay [2], the GI50 amounted to 16 nM. That is a double-digit nanomolar value. `CO[C@H]1CCN(c2ccc(-n3nc(C(=O)N4CCC[C@@H](N)C4)cc3-c3ccc(C#N)c(F)c3)c(F)c2)C1` [Example 67, 4-(3-((R)-3-aminopiperidine-1-carbonyl)-1-(2-fluoro-4-((S)-3-methoxypyrrolidine-1-yl)phenyl)-1H-pyrazole-5-yl)-2-fluorobenzonitrile]: the GI50 in assay [2] is 30 nM. For the compound `CN[C@@H]1CCCN(C(=O)c2cc(-c3ccc(C#N)c(F)c3)n(-c3ccc(N4CC[C@H](OC)C4)cc3F)n2)C1` [Example 68, 2-fluoro-4-(1-(2-fluoro-4-((S)-3-methoxypyrrolidine-1-yl)phenyl)-3-((R)-3-(methylamino)piperidine-1-carbonyl)-1H-pyrazole-5-yl)benzonitrile], it took 6.8 nM to inhibit growth in assay [2] by half (GI50). This GI50 is about 4.4-fold lower than that of the compound before. On the same count and under the same terms, the result for `CO[C@@H]1CCN(c2ccc(-n3nc(C(=O)N4CCC[C@@H](N)C4)cc3-c3ccc(C#N)c(F)c3)c(F)c2)C1` [Example 69, 4-(3-((R)-3-aminopiperidine-1-carbonyl)-1-(2-fluoro-4-((R)-3-methoxypyrrolidine-1-yl)phenyl)-1H-pyrazole-5-yl)-2-fluorobenzonitrile] reads 38 nM. Same read-out and setting: the result for `CN[C@@H]1CCCN(C(=O)c2cc(-c3ccc(C#N)c(F)c3)n(-c3ccc(N4CC[C@@H](OC)C4)cc3F)n2)C1` [Example 70, 2-fluoro-4-(1-(2-fluoro-4-((R)-3-methoxypyrrolidine-1-yl)phenyl)-3-((R)-3-(methylamino)piperidine-1-carbonyl)-1H-pyrazole-5-yl)benzonitrile] reads 18 nM; that for `CCO[C@H]1CCN(c2ccc(-n3nc(C(=O)N4CCC[C@@H](NC)C4)cc3-c3ccc(C#N)c(F)c3)c(F)c2)C1` [Example 71, 2-fluoro-4-(1-(2-fluoro-4-((S)-3-ethoxypyrrolidine-1-yl)phenyl)-3-((R)-3-(methylamino)piperidine-1-carbonyl)-1H-pyrazole-5-yl)benzonitrile], 10 nM.

The compound `N#Cc1ccc(-c2cc(C(=O)N3CCC[C@@H](N)C3)nn2-c2ccc(N3CCC(O)C3)cc2F)cc1F` (stereo partly drawn) [Example 72, 4-(3-((R)-3-aminopiperidine-1-carbonyl)-1-(2-fluoro-4-(3-hydroxypyrrolidine-1-yl)phenyl)-1H-pyrazole-5-yl)-2-fluorobenzonitrile] showed a GI50 in assay [2] of 38 nM.

Consider `CN[C@@H]1CCCN(C(=O)c2cc(-c3ccc(C#N)c(F)c3)n(-c3ccc(N4CC[C@H](Cl)C4)cc3F)n2)C1` [Example 73, 2-fluoro-4-(1-(2-fluoro-4-((S)-3-chloropyrrolidine-1-yl)phenyl)-3-((R)-3-(methylamino)piperidine-1-carbonyl)-1H-pyrazole-5-yl)benzonitrile], for which the GI50 in assay [2] turned out to be 39 nM. On the same count and under the same terms, the result for `N#Cc1ccc(-c2cc(C(=O)N3CCC[C@@H](N)C3)nn2-c2c(F)cc(N3CCCC3)cc2F)cc1F` [Example 74, (R)-4-(3-(3-aminopiperidine-1-carbonyl)-1-(2,6-difluoro-4-(pyrrolidine-1-yl)phenyl)-1H-pyrazole-5-yl)-2-fluorobenzonitrile] reads 8.8 nM; that for `N#Cc1ccc(-c2cc(C(=O)N3CCC[C@@H](N)C3)nn2-c2ccc(N3CCCC3)cc2Cl)cc1F` [Example 75, (R)-4-(3-(3-aminopiperidine-1-carbonyl)-1-(2-chloro-4-(pyrrolidine-1-yl)phenyl)-1H-pyrazole-5-yl)-2-fluorobenzonitrile], 52 nM; that for `COc1cc(N2CCCC2)ccc1-n1nc(C(=O)N2CCC[C@@H](N)C2)cc1-c1ccc(C#N)c(F)c1` [Example 76, (R)-4-(3-(3-aminopiperidine-1-carbonyl)-1-(2-methoxy-4-(pyrrolidine-1-yl)phenyl)-1H-pyrazole-5-yl)-2-fluorobenzonitrile], 43 nM.

On to `N#Cc1ccc(-c2cc(C(=O)N3CCC[C@@H](N)C3)nn2-c2ccc(N3CCCCC3)cc2F)cc1` [Example 77, (R)-4-(3-(3-aminopiperidine-1-carbonyl)-1-(2-fluoro-4-(piperidine-1-yl)phenyl)-1H-pyrazole-5-yl)benzonitrile], for which, in assay [2], the GI50 came out at 67 nM.

`N#Cc1ccc(-c2cc(C(=O)N3CCC[C@@H](N)C3)nn2-c2ccc(N3CCCCC3)cc2F)cc1F` [Example 78, (R)-4-(3-(3-aminopiperidine-1-carbonyl)-1-(2-fluoro-4-(piperidine-1-yl)phenyl)-1H-pyrazole-5-yl)-2-fluorobenzonitrile] came in with a GI50 in assay [2] of 34 nM. Still for that read-out and setting: the result for `CC1CC(C)CN(c2ccc(-n3nc(C(=O)N4CCC[C@@H](N)C4)cc3-c3ccc(C#N)c(F)c3)c(F)c2)C1` (stereo partly drawn) [Example 82, 4-(3-((R)-3-aminopiperidine-1-carbonyl)-1-(4-(3,5-dimethylpiperidine-1-yl)-2-fluorophenyl)-1H-pyrazole-5-yl)-2-fluorobenzonitrile] reads 119 nM. On the same count and under the same terms, the figure for `N#Cc1ccc(-c2cc(C(=O)N3CCC[C@@H](N)C3)nn2-c2ccc(N3CCC(N4CCCCC4)CC3)cc2F)cc1F` [Example 83, (R)-4-(1-(4-([1,4′-bipiperidine]-1′-yl)-2-fluorophenyl)-3-(3-aminopiperidine-1-carbonyl)-1H-pyrazole-5-yl)-2-fluorobenzonitrile] is 71 nM. Still for that read-out and setting: the figure for `N#Cc1ccc(-c2cc(C(=O)N3CCCC[C@@H](N)C3)nn2-c2ccc(N3CCCCC3)cc2F)cc1F` [Example 84, (R)-4-(3-(3-aminoazepane-1-carbonyl)-1-(2-fluoro-4-(piperidine-1-yl)phenyl)-1H-pyrazole-5-yl)-2-fluorobenzonitrile] is 84 nM. In turn, `N#Cc1ccc(-c2cc(C(=O)N3CCC[C@@H](N)C3)nn2-c2ccc3c(c2)CCC3)cc1` [Example 87, (R)-4-(3-(3-aminopiperidine-1-carbonyl)-1-(2,3-dihydro-1H-indane-5-yl)-1H-pyrazole-5-yl)benzonitrile] registered a GI50 in assay [2] of 142 nM. For `N#Cc1ccc(-c2cc(C(=O)N3CCC[C@@H](N)C3)nn2-c2ccc3c(c2)CCC3)cc1F` [Example 88, (R)-4-(3-(3-aminopiperidine-1-carbonyl)-1-(2,3-dihydro-1H-inden-5-yl)-1H-pyrazole-5-yl)-2-fluorobenzonitrile], in assay [2], the GI50 amounted to 173 nM. Still for that read-out and setting: the result for `CN[C@@H]1CCCN(C(=O)c2cc(-c3ccc(C#N)cc3)n(-c3ccc4c(c3)CCC4)n2)C1` [Example 89, (R)-4-(1-(2,3-dihydro-1H-inden-5-yl)-3-(3-(methylamino)piperidine-1-carbonyl)-1H-pyrazole-5-yl)benzonitrile] reads 71 nM.
